From patent US4472582A, “3,5-Disubstituted-4'-(9-acridinylamino)-methane-sulfon-m-anisidide compounds having antitumor properties” (Development Finance Corporation of New Zealand, priority 1979, dated 1984)

Each compound was assayed on L1210 leukemia (ip) (assay: Antileukemic screen, L1210 tumour ip, drug ip qd 1-5). Conditions: L1210-ip, qd 1-5; Table IV.
Type: in vivo, mice (C3H/DBA2 F1 hybrids)
Description: In initial screening a standard drug administration schedule has been employed (ip, qd 1-5) and mice (C3 H/DBA2 F1 hybrids) bred in the laboratory, receive a standard tumor inoculum of 10^5 L1210 cells ip on day 0. After range finding experiments, an LD10 dose has then been derived employing doses separated by 0.05 log.dose units, an acceptable soluble drug formulation (B. F. Cain, R. N. Seelye and G. J. Atwell, J. Med. Chem., 17, 922-930 (1974)) and groups of six tumored mice at each dose level. Deaths occuring before day 8 have been taken as resulting from drug toxicity. From the linear regression relating percent probit-mortality and the logarithms of the corresponding doses, an LD10 value has been derived. Profiles of antileukemic activity have been obtained employing doses separated by 0.09 log.dose intervals. Significant percentage increases in life span of leukemic animals, obtained at and below the LD10 dose, have been linearly correlated with the logarithms of the corresponding doses. The increase in life span (ILS) specified by the life extension-log.dose regression line at the measured LD10 provides a representative measure of antileukemic effectiveness at a standard host load in toxicity (W. A. Denny and B. F. Cain, J. Med. Chem., 21, 430-437 (1978)). For congener selection ILS has been employed as a measure of factor (1) above and LD10 for factor (2). Desirable drug pharmacokinetic properties (factor (3)) have been screened for by employing standard ip drug administration and implanting tumor more remotely; either subcutaneously (sc) or intracerabrally (ic) (B. F. Cain and G. J. Atwell Europ J. Cancer, 10, 539 549 (1974), B. F. Cain and G. J. Atwell, J. Med. Chem., 19 1409-1416 (1976)).
ILS and LD10=as defined above.
D40=the drug dose necessary to provide 40% ILS in standard L1210 assays.

Compared with `COc1cc(NS(C)(=O)=O)ccc1Nc1c2ccccc2nc2cc(Br)c(N)cc12` [Compound C1], `COc1cc(NS(C)(=O)=O)ccc1Nc1c2ccccc2nc2cc(C(F)(F)F)c(N)cc12` [Compound C2] is higher in “ILS Observed” value: 90% for the first, 108% for the second.

Going from `COc1cc(NS(C)(=O)=O)ccc1Nc1c2ccccc2nc2c(C)c([N+](=O)[O-])ccc12` [Compound C3] to `COc1cc(NS(C)(=O)=O)ccc1Nc1c2ccccc2nc2c(C)c(C)ccc12` [Compound C4], the “ILS Observed” value rises from 54% to 79%.

First: COc1cc(NS(C)(=O)=O)ccc1Nc1c2ccc(C)cc2nc2c(C)cccc12 [Compound C13]
Second: COc1cc(NS(C)(=O)=O)ccc1Nc1c2ccc(Cl)cc2nc2c(C)cccc12 [Compound C11]
The “ILS Observed” value of the first is higher: 97% for the first, 57% for the second.

Going from `COc1cc(NS(C)(=O)=O)ccc1Nc1c2ccc(C)cc2nc2cc([N+](=O)[O-])ccc12` [Compound C22] to `COc1cc(NS(C)(=O)=O)ccc1Nc1c2ccc([N+](=O)[O-])cc2nc2cc([N+](=O)[O-])ccc12` [Compound C23], the “ILS Observed” value falls from 91% to 58%.

Going from `COc1cc(NS(C)(=O)=O)ccc1Nc1c2ccc(N)cc2nc2c(C)c(C)ccc12` [Compound C31] to `COc1cc(NS(C)(=O)=O)ccc1Nc1c2ccc(C)cc2nc2c(C)c(C)ccc12` [Compound C29], the “ILS Observed” value falls from 79% to 58%.

First: COc1cc(NS(C)(=O)=O)ccc1Nc1c2cccc(C)c2nc2c(C)c([N+](=O)[O-])ccc12 [Compound C27]
Second: COc1cc(NS(C)(=O)=O)ccc1Nc1c2cccc(C)c2nc2c(C)c(C)ccc12 [Compound C28]
The “ILS Observed” value of the first is lower: 28% for the first, 76% for the second.

Compared with `COc1cc(NS(C)(=O)=O)ccc1Nc1c2ccc(C(N)=O)cc2nc2c(C)cccc12` [Compound C17], `COc1cc(NS(C)(=O)=O)ccc1Nc1c2ccc(C(N)=O)cc2nc2c(OC)cccc12` [Compound C18] is lower in “ILS Observed” value: 150% for the first, 70% for the second.

Compared with `COc1cc(NS(C)(=O)=O)ccc1Nc1c2ccc(Cl)cc2nc2c(C(N)=O)cccc12` [Compound C15], `COc1cc(NS(C)(=O)=O)ccc1Nc1c2ccc(C)cc2nc2c(C(N)=O)cccc12` [Compound C14] is higher in “ILS Observed” value: 90% for the first, 100% for the second.

Going from `COc1cc(NS(C)(=O)=O)ccc1Nc1c2ccc([N+](=O)[O-])cc2nc2c(C)c(C)ccc12` [Compound C30] to `COc1cc(NS(C)(=O)=O)ccc1Nc1c2ccc([N+](=O)[O-])cc2nc2c(C)cccc12` [Compound C5], the “ILS Observed” value rises from 92% to 107%.

Compared with `COc1cc(NS(C)(=O)=O)ccc1Nc1c2ccc(Br)cc2nc2cc(Br)ccc12` [Compound C21], `COc1cc(NS(C)(=O)=O)ccc1Nc1c2ccc(Cl)cc2nc2cc(Cl)ccc12` [Compound C19] is lower in “ILS Observed” value: 82% for the first, 52% for the second.

First: COc1cc(NS(C)(=O)=O)ccc1Nc1c2ccc([N+](=O)[O-])cc2nc2c(C(N)=O)cccc12 [Compound C16]
Second: COc1cc(NS(C)(=O)=O)ccc1Nc1c2ccc([N+](=O)[O-])cc2nc2c(OC)cccc12 [Compound C6]
The “ILS Observed” value of the first is higher: 100% for the first, 66% for the second.

Going from `COc1cc(NS(C)(=O)=O)ccc1Nc1c2ccc(N)cc2nc2c(C)cccc12` [Compound C7] to `COc1cc(NS(C)(=O)=O)ccc1Nc1c2ccc(I)cc2nc2c(C)cccc12` [Compound C8], the “ILS Observed” value falls from 125% to 86%.

Compared with `COc1cc(NS(C)(=O)=O)ccc1Nc1c2ccc(I)cc2nc2c(OC)cccc12` [Compound C9], `COc1cc(NS(C)(=O)=O)ccc1Nc1c2ccc(Cl)cc2nc2c(OC)cccc12` [Compound C12] is higher in “ILS Observed” value: 63% for the first, 82% for the second.

Compared with `CNc1ccc2c(Nc3ccc(NS(C)(=O)=O)cc3OC)c3cccc(C)c3nc2c1` [Compound C10], `CNc1ccc2c(Nc3ccc(NS(C)(=O)=O)cc3OC)c3ccc(C)c(C)c3nc2c1` [Compound C32] is lower in “ILS Observed” value: 68% for the first, 64% for the second.

First: COc1cc(NS(C)(=O)=O)ccc1Nc1c2cccc(C)c2nc2c(C)cccc12 [Compound C24]
Second: COc1cc(NS(C)(=O)=O)ccc1Nc1c2cc(N)c(Br)cc2nc2c(C)cccc12 [Compound C26]
The “ILS Observed” value of the first is higher: 87% for the first, 83% for the second.

Going from `COc1cc(NS(C)(=O)=O)ccc1Nc1c2ccccc2nc2c(C)c(C)c(N)cc12` [Compound C25] to `COc1cc(NS(C)(=O)=O)ccc1Nc1c2ccc(Cl)cc2nc2cc(C(F)(F)F)ccc12` [Compound C20], the “ILS Observed” value falls from 61% to 5%.

Same assay, conditions: in words

With `COc1cc(NS(C)(=O)=O)ccc1Nc1c2ccc(C)cc2nc2cc([N+](=O)[O-])ccc12` [Compound C22] the “Observed ILS compared with predicted ILS” value was “observed ILS values greater than their predicted ILS values”.
`COc1cc(NS(C)(=O)=O)ccc1Nc1c2ccc(C(N)=O)cc2nc2c(C)cccc12` [Compound C17] was tested, and the “Observed ILS compared with predicted ILS” value was “observed ILS values greater than their predicted ILS values”.
In the case of `COc1cc(NS(C)(=O)=O)ccc1Nc1c2ccc([N+](=O)[O-])cc2nc2c(C(N)=O)cccc12` [Compound C16], the “Observed ILS compared with predicted ILS” value is reported as “observed ILS values greater than their predicted ILS values”.
With `COc1cc(NS(C)(=O)=O)ccc1Nc1c2ccc(N)cc2nc2c(C)cccc12` [Compound C7] the “Observed ILS compared with predicted ILS” value was “observed ILS values greater than their predicted ILS values”.
`COc1cc(NS(C)(=O)=O)ccc1Nc1c2ccc([N+](=O)[O-])cc2nc2c(C)cccc12` [Compound C5] was tested, and the “Observed ILS compared with predicted ILS” value was “observed ILS values greater than their predicted ILS values”.
In the case of `COc1cc(NS(C)(=O)=O)ccc1Nc1c2ccccc2nc2cc(C(F)(F)F)c(N)cc12` [Compound C2], the “Observed ILS compared with predicted ILS” value is reported as “observed ILS values greater than their predicted ILS values”.

Same assay, conditions: monosubstituted m-AMSA; Table V

Compared with `COc1cc(NS(C)(=O)=O)ccc1Nc1c2ccccc2nc2cc([N+](=O)[O-])ccc12` [Compound M11], `COc1cc(NS(C)(=O)=O)ccc1Nc1c2ccccc2nc2cc(I)ccc12` [Compound M7] is higher in “ILS Observed” value: 84% for the first, 98% for the second.

Going from `CNC(=O)c1ccc2c(Nc3ccc(NS(C)(=O)=O)cc3OC)c3ccccc3nc2c1` [Compound M4] to `COc1cc(NS(C)(=O)=O)ccc1Nc1c2ccccc2nc2cc(C(N)=O)ccc12` [Compound M3], the “ILS Observed” value rises from 92% to 150%.

Going from `CNC(=O)c1cccc2c(Nc3ccc(NS(C)(=O)=O)cc3OC)c3ccccc3nc12` [Compound M14] to `COc1cc(NS(C)(=O)=O)ccc1Nc1c2ccccc2nc2c(C(N)=O)cccc12` [Compound M13], the “ILS Observed” value falls from 135% to 112%.

First: COc1cc(NS(C)(=O)=O)ccc1Nc1c2ccccc2nc2cc(C)ccc12 [Compound M2]
Second: COc1cc(NS(C)(=O)=O)ccc1Nc1c2ccccc2nc2cc(Br)ccc12 [Compound M6]
The “ILS Observed” value of the first is lower: 88% for the first, 119% for the second.

Going from `COc1cc(NS(C)(=O)=O)ccc1Nc1c2ccccc2nc2c(OC)cccc12` [Compound M16] to `COc1cc(NS(C)(=O)=O)ccc1Nc1c2ccccc2nc2c(C)cccc12` [Compound M12], the “ILS Observed” value rises from 110% to 111%.

Compared with `CNc1ccc2c(Nc3ccc(NS(C)(=O)=O)cc3OC)c3ccccc3nc2c1` [Compound M10], `COc1cc(NS(C)(=O)=O)ccc1Nc1c2ccccc2nc2cc(Cl)ccc12` [Compound M5] is lower in “ILS Observed” value: 94% for the first, 72% for the second.

First: COc1cc(NS(C)(=O)=O)ccc1Nc1c2ccccc2nc2ccc(N)cc12 [Compound M1]
Second: COc1cc(NS(C)(=O)=O)ccc1Nc1c2ccccc2nc2cc(N)ccc12 [Compound M9]
The “ILS Observed” value of the first is higher: 106% for the first, 82% for the second.

Compared with `COc1cc(NS(C)(=O)=O)ccc1Nc1c2ccccc2nc2c(C(=O)NCC(N)=O)cccc12` [Compound M15], `COc1cc(NS(C)(=O)=O)ccc1Nc1c2ccccc2nc2cc(C(F)(F)F)ccc12` [Compound M8] is lower in “ILS Observed” value: 98% for the first, 63% for the second.
